Results: the supplement of paper PMC11208160

Experiment: recombinant UMI read abundance after kanamycin selection (control-corrected) (log10(CPM+1)); higher = more efficient recombination; extreme values may be limits of the assay; sequences stand for … in AGTGCAGAGAAAATCGGCCAGTTTTCTCTGCCTGCAGTCCGCATGCCGTGGGACCCCTTGGGTTCTAACCTGTTGCCTAGATTTATGCAGCGGACTGCCTTTCTCCCAAAGTGATAAACCGG…AGGTTGGTTTCACT; site = the 11-nt donor
Method in brief: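 Values are reported as log10(CPM+1), obtained by converting sequencing counts to CPM, averaging replicates and scaling by control-derived factors. The counts came from recombinant UMIs amplified by PCR across the donor–target junction. These UMIs came from a pooled Escherichia coli screen of donor and donor-binding-loop pairs for the IS621 bridge recombinase, plated with IPTG (0.07 mM) plus kanamycin or left unselected, in two replicates each.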
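Note: IS621 bridge recombinase in Escherichia coli cells against a fixed T5 target plasmid.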

Sequence	recombinant UMI read abundance (log10)
GGATGGCCATGGACCGGTTTTCCCGGTAATCCGTATTTGCA (site GAATGGCCTTG)	0
GGATGGCCATGGACCGGTTTTCCCGGTAATCCGTATTTGCA (site GCATGGCCTTG)	0
GGATGGCCATGGACCGGTTTTCCCGGTAATCCGTATTTGCA (site GGATGGCCTTG)	0.0128
GGATGGCCATGGACCGGTTTTCCCGGTAATCCGTATTTGCA (site GTATGGCCTTG)	0
GGATTCGCATGGACCGGTTTTCCCGGTAATCCGTATTTGCG (site GGATTCGCTCG)	0.0184
GGATTGACATGGACCGGTTTTCCCGGTAATCCGTATTTGTT (site GGATTGACTAA)	0.888
GGCAAAACATGGACCGGTTTTCCCGGTAATCCGTATTTGTT (site GGCAAAACTAA)	0.56
GGCAAGCCATGGACCGGTTTTCCCGGTAATCCGTATTTGAA (site GGCAAACCTTT)	0
GGCAAGCCATGGACCGGTTTTCCCGGTAATCCGTATTTGAA (site GGCAACCCTTT)	0
GGCAAGCCATGGACCGGTTTTCCCGGTAATCCGTATTTGAA (site GGCAAGCCTTT)	0.247
GGCAAGCCATGGACCGGTTTTCCCGGTAATCCGTATTTGAA (site GGCAATCCTTT)	0
GGCAATGCATGGACCGGTTTTCCCGGTAATCCGTATTTGAA (site GGCAATACTTT)	0
GGCAATGCATGGACCGGTTTTCCCGGTAATCCGTATTTGAA (site GGCAATCCTTT)	0
GGCAATGCATGGACCGGTTTTCCCGGTAATCCGTATTTGAA (site GGCAATGCTTT)	1.26
GGCAATGCATGGACCGGTTTTCCCGGTAATCCGTATTTGAA (site GGCAATTCTTT)	0.536
GGCATATCATGGACCGGTTTTCCCGGTAATCCGTATTTGCA (site GGCATATCTTG)	1.57
GGCCACCCATGGACCGGTTTTCCCGGTAATCCGTATTTGTC (site GGCCACCCTAA)	0.133
GGCCACCCATGGACCGGTTTTCCCGGTAATCCGTATTTGTC (site GGCCACCCTCA)	0.0127
GGCCACCCATGGACCGGTTTTCCCGGTAATCCGTATTTGTC (site GGCCACCCTGA)	0
GGCCACCCATGGACCGGTTTTCCCGGTAATCCGTATTTGTC (site GGCCACCCTTA)	0.0183
GGCCACCCATGGACCGGTTTTCCCGGTAATCCGTATTTGTT (site AGCCACCCTAA)	0.0306
GGCCACCCATGGACCGGTTTTCCCGGTAATCCGTATTTGTT (site CGCCACCCTAA)	0.181
GGCCACCCATGGACCGGTTTTCCCGGTAATCCGTATTTGTT (site GACCACCCTAA)	0.018
GGCCACCCATGGACCGGTTTTCCCGGTAATCCGTATTTGTT (site GCCCACCCTAA)	0.0196
GGCCACCCATGGACCGGTTTTCCCGGTAATCCGTATTTGTT (site GGACACCCTAA)	0.0221

Sequence	recombinant UMI read abundance (log10)
GGCCACCCATGGACCGGTTTTCCCGGTAATCCGTATTTGTT (site GGCAACCCTAA)	0.00185
GGCCACCCATGGACCGGTTTTCCCGGTAATCCGTATTTGTT (site GGCCAACCTAA)	0.0287
GGCCACCCATGGACCGGTTTTCCCGGTAATCCGTATTTGTT (site GGCCACACTAA)	0.0112
GGCCACCCATGGACCGGTTTTCCCGGTAATCCGTATTTGTT (site GGCCACCCTAA)	0.0168
GGCCACCCATGGACCGGTTTTCCCGGTAATCCGTATTTGTT (site GGCCACCCTAC)	0.0176
GGCCACCCATGGACCGGTTTTCCCGGTAATCCGTATTTGTT (site GGCCACCCTAG)	0
GGCCACCCATGGACCGGTTTTCCCGGTAATCCGTATTTGTT (site GGCCACCCTAT)	0.0103
GGCCACCCATGGACCGGTTTTCCCGGTAATCCGTATTTGTT (site GGCCACCCTCA)	0
GGCCACCCATGGACCGGTTTTCCCGGTAATCCGTATTTGTT (site GGCCACCCTGA)	0
GGCCACCCATGGACCGGTTTTCCCGGTAATCCGTATTTGTT (site GGCCACCCTTA)	0.00548
GGCCACCCATGGACCGGTTTTCCCGGTAATCCGTATTTGTT (site GGCCACGCTAA)	0.0127
GGCCACCCATGGACCGGTTTTCCCGGTAATCCGTATTTGTT (site GGCCACTCTAA)	0.00279
GGCCACCCATGGACCGGTTTTCCCGGTAATCCGTATTTGTT (site GGCCAGCCTAA)	0
GGCCACCCATGGACCGGTTTTCCCGGTAATCCGTATTTGTT (site GGCCATCCTAA)	0.0127
GGCCACCCATGGACCGGTTTTCCCGGTAATCCGTATTTGTT (site GGCCCCCCTAA)	0.0711
GGCCACCCATGGACCGGTTTTCCCGGTAATCCGTATTTGTT (site GGCCGCCCTAA)	0.0085
GGCCACCCATGGACCGGTTTTCCCGGTAATCCGTATTTGTT (site GGCCTCCCTAA)	0.0064
GGCCACCCATGGACCGGTTTTCCCGGTAATCCGTATTTGTT (site GGCGACCCTAA)	0.0156
GGCCACCCATGGACCGGTTTTCCCGGTAATCCGTATTTGTT (site GGCTACCCTAA)	0.031
GGCCACCCATGGACCGGTTTTCCCGGTAATCCGTATTTGTT (site GGGCACCCTAA)	0.0781
GGCCACCCATGGACCGGTTTTCCCGGTAATCCGTATTTGTT (site GGTCACCCTAA)	0.0101
GGCCACCCATGGACCGGTTTTCCCGGTAATCCGTATTTGTT (site GTCCACCCTAA)	0.0225
GGCCACCCATGGACCGGTTTTCCCGGTAATCCGTATTTGTT (site TGCCACCCTAA)	0.0158
GGCCACTCATGGACCGGTTTTCCCGGTAATCCGTATTTGTT (site GGCCACACTAA)	0.0252
GGCCACTCATGGACCGGTTTTCCCGGTAATCCGTATTTGTT (site GGCCACCCTAA)	0.00888

Sequence	recombinant UMI read abundance (log10)
GGCCACTCATGGACCGGTTTTCCCGGTAATCCGTATTTGTT (site GGCCACGCTAA)	0.00402
GGCCACTCATGGACCGGTTTTCCCGGTAATCCGTATTTGTT (site GGCCACTCTAA)	1.33
GGCCAGACATGGACCGGTTTTCCCGGTAATCCGTATTTGAC (site GGCCAGACTGT)	0.867
GGCCAGGCATGGACCGGTTTTCCCGGTAATCCGTATTTGTT (site GGCCAGGCTAA)	0.00326
GGCCCAACATGGACCGGTTTTCCCGGTAATCCGTATTTGTA (site GGACCAACTTA)	0.0271
GGCCCAACATGGACCGGTTTTCCCGGTAATCCGTATTTGTA (site GGCCCAACTTA)	0.848
GGCCCAACATGGACCGGTTTTCCCGGTAATCCGTATTTGTA (site GGGCCAACTTA)	0
GGCCCAACATGGACCGGTTTTCCCGGTAATCCGTATTTGTA (site GGTCCAACTTA)	0.00413
GGCCCACCATGGACCGGTTTTCCCGGTAATCCGTATTTGTG (site GGCCCACCTCA)	0.0252
GGCCCCGCATGGACCGGTTTTCCCGGTAATCCGTATTTGAT (site GGCCCCGCTAT)	1.24
GGCCCGCCATGGACCGGTTTTCCCGGTAATCCGTATTTGAA (site GGCCCGCCTTT)	0
GGCCCGTCATGGACCGGTTTTCCCGGTAATCCGTATTTGCA (site GGCCCGTCTTG)	1.73
GGCCTGGCATGGACCGGTTTTCCCGGTAATCCGTATTTGAG (site GGCCTGGCTCT)	0.666
GGCGACCCATGGACCGGTTTTCCCGGTAATCCGTATTTGCC (site GGCGACCCTGG)	0
GGCGTGGCATGGACCGGTTTTCCCGGTAATCCGTATTTGCA (site GGCGTGGCTTG)	2.55
GGCTACACATGGACCGGTTTTCCCGGTAATCCGTATTTGCA (site GGCTACACTTG)	1.86
GGCTAGACATGGACCGGTTTTCCCGGTAATCCGTATTTGAC (site GGCTAGACTGT)	2.02
GGCTCAACATGGACCGGTTTTCCCGGTAATCCGTATTTGCT (site GGCTCAACTAG)	0
GGCTGCTCATGGACCGGTTTTCCCGGTAATCCGTATTTGTG (site GGCTGCTCTCA)	0.427
GGCTTCCCATGGACCGGTTTTCCCGGTAATCCGTATTTGTC (site GGCTTCCCTGA)	0
GGGAAACCATGGACCGGTTTTCCCGGTAATCCGTATTTGGC (site GGGAAACCTGC)	0
GGGAAGCCATGGACCGGTTTTCCCGGTAATCCGTATTTGGG (site GAGAAGCCTCC)	0.00654
GGGAAGCCATGGACCGGTTTTCCCGGTAATCCGTATTTGGG (site GCGAAGCCTCC)	0
GGGAAGCCATGGACCGGTTTTCCCGGTAATCCGTATTTGGG (site GGGAAGCCTCC)	0.00361
GGGAAGCCATGGACCGGTTTTCCCGGTAATCCGTATTTGGG (site GTGAAGCCTCC)	0.0194
